Reference: patent publication US20170202792A1, “METHOD FOR TREATING TAU-ASSOCIATED DISEASES” (NATIONAL TAIWAN NORMAL UNIVERSITY, priority 2016, published 2017)

Key:
IL-6 and TNF-α = test: Content analysis of IL-6 and TNF-α in serum (ELISA); type: in vivo, mouse; conditions: both normal and high blood glucose groups; 0.25 mg/kg i.p. daily
Procedure: (§1) Hyperglycemia was induced by streptozotocin (STZ) to accelerated Alzheimer's disease progression of 6-month-old male transgenic 3×Tg−AD mice. Half of the 3×Tg−AD mice (n=30) received STZ (100 mg/kg) intraperitoneal injection at days 1, 2, 8, and 9 respectively as the high blood glucose group (HBG); another half of the 3×Tg-AD mice (n=30) received sodium citrate (0.1 M) at the same time points as the normal blood glucose group (NBG). […] Both mouse body weight (BW) and blood glucose (BG) were monitored every week.
Additionally, the peripheral inflammatory cytokine in four groups of mice were evaluated. The collected blood was centrifuged (2000×g) for 20 minutes at 4° C., and the supernatant was analyzed using mouse TNF-α ELISA kit and IL-6 ELISA kit (R&D system). OD450 nm absorbance was detected by ELISA reader, and the concentration of IL-6 and of TNF-α were obtained by interpolating the standard curve and shown in FIG. 11, wherein *p<0.05. […]

HSPB1 = test: Western blot of HSPB1 expression in tauRD-DsRed SH-SY5Y cells; type: cell-based, human; conditions: untreated = 100%
Source text: Furthermore, chaperones are molecules essential for proper protein folding which play a key role in protein-folding disorders in central nervous system. […] Moreover, the upregulation of endoplasmic reticulum chaperones such as glucose-regulated protein, 78 kDa (GRP78) is a cellular protective response against AD (Hoshino et al., 2007. Endoplasmic reticulum chaperones inhibit the production of amyloid-(3 peptides. Biochem. J. 402, 581-589). Accordingly, the GRP78 and HSPB1 expression in tauRD-DsRed SH-SYSY cells treated by Congo red and compound (I) with or without doxycycline were analyzed.
Western blotting analysis was applied for examining the expressions of HSPB1 and GRP78, the method was as follows: total proteins were extracted using RIPA buffer, which comprised 50 mM Tris-HCl, 150 mM NaCl, 1 mM EDTA, 1 mM EGTA, 0.1% SDS, 0.5% sodium deoxycholate, 1% Triton X-100, and a protease inhibitor cocktail (Calbiochem). […] Next, immunoreactive bands were detected using horseradish peroxidase-conjugated goat anti-mouse, goat anti-rabbit, or donkey anti-goat IgG antibodies (1:5000; GeneTex) and chemiluminescent substrate (Millipore).

[1] = test system: phosphorylated tau protein; test: Western blot of mouse hippocampal tissue, phosphorylated tau; type: in vivo; conditions: hyperglycemic 3×Tg-AD mice; 0.25 mg/kg i.p. daily vs DMSO
Procedure: as §1
Mice were sacrificed after MWM and hippocampi were isolated for analyzing several protein expression levels by means of western blot. The protein of the hippocampi was quantified by BCA assay (Pierce), wherein 25 μg of protein was separated by SDS-PAGE and then transferred to PVDF film. Next, protein was blocked for reducing non-specific signals, and reacted with primary antibodies (GSK-3β, pS9-GSK-3β (non-activated), pT216-GSK-3β(activated), pS202Tau, pS396Tau, pT231Tau, HT7 (total Tau)), and secondary antibodies (anti-rabbit, anti-mouse IgG HRP-linked antibody; 1:10,000; Amersham Pharmacia Biotech). β-actin was used as the loading control, ECL kit was used to detect the antigen-antibody complex, and LAS-4000 (Fujifilm) was used for imaging and quantification.

3×Tg-AD mice = test: Morris water maze (MWM) test; type: in vivo, mouse
Procedure: Hyperglycemia was induced by streptozotocin (STZ) to accelerated Alzheimer's disease progression of 6-month-old male transgenic 3×Tg−AD mice. Half of the 3×Tg−AD mice (n=30) received STZ (100 mg/kg) intraperitoneal injection at days 1, 2, 8, and 9 respectively as the high blood glucose group (HBG); another half of the 3×Tg-AD mice (n=30) received sodium citrate (0.1 M) at the same time points as the normal blood glucose group (NBG). Then, HBG and NBG were divided into two groups respectively to give four groups such as NBG-compound (I), HBG-compound (I), NBG-DMSO, and HBG-DMSO with n=15 in each group; wherein 0.25 mg/kg of compound (I) (in 30 μL) were intraperitoneal injected into those mice of NBG-compound (I) and HBG-compound (I) groups daily since day 14 for 28 days, and 30 μL of DMSO solvent were intraperitoneal injected into those mice of NBG-DMSO and HBG-DMSO groups daily since day 14 for 28 days. Both mouse body weight (BW) and blood glucose (BG) were monitored every week.
Morris water maze (MWM) was conducted to evaluate the learning and memory ability of the mice at days 34-42. At first, during the 4 training days, each of the mice received four trails a day, wherein each of the mice was released into the water from a starting point that randomly varied between trials, and the time required for each of the mice to find the hidden platform to escape from the water maze (escape latency) was calculated, and the curve of 4 training days represent the learning profile of mice. 24 hours after the final training trial, the mice underwent three testing trials to determine the time required to find the hidden platform as a measure of spatial learning acquisition. The probe trials were conducted 48 hours after the end of the testing trials to evaluate the long-term spatial memory, wherein each mouse was allowed to swim freely in a pool without platform for 60 seconds, and the duration of the mouse spent in the target quadrant (where the platform was originally disposed) was measured to represent the degree of memory consolidation after learning.

[2] = test system: GSK-3β (total and p-Ser9); test: Western blot of total and phosphorylated GSK-3β in tauRD-DsRed SH-SY5Y cells; type: cell-based, human
Procedure: Western blotting analysis was applied for examining the expressions of HSPB1 and GRP78, the method was as follows: total proteins were extracted using RIPA buffer, which comprised 50 mM Tris-HCl, 150 mM NaCl, 1 mM EDTA, 1 mM EGTA, 0.1% SDS, 0.5% sodium deoxycholate, 1% Triton X-100, and a protease inhibitor cocktail (Calbiochem). […] of total proteins were separated on 10% SDS-PAGE gels and blotted onto nitrocellulose membrane which were stained (4° C., overnight) with antibodies against DsRed (1:500; Santa Cruz), HSPB1 (1:500; Santa Cruz), and GRP78 (1:200; Santa Cruz). Next, immunoreactive bands were detected using horseradish peroxidase-conjugated goat anti-mouse, goat anti-rabbit, or donkey anti-goat IgG antibodies (1:5000; GeneTex) and chemiluminescent substrate (Millipore).
The methods of cell culture and western blot analysis are similar to that described above, except that the antibodies against GSK-3β (total and p-Ser9) (1:1000; Cell Signaling), total tau (1:500; Dako), p-tau (Ser202) (1:500; AnaSpec), p-tau (Thr231 and Ser396) (1:1000; Invitrogen), [3-actin (1:5000; Millipore), or GAPDH (1:2000; MDBio) were used herein for evaluation of the expression levels thereof in the cells.

CCCCC/C=C\C/C=C\C/C=C\C/C=C\CCCC(=O)Nc1ccc(O)cc1 [compound (I), (5Z, 8Z, 11Z,14Z)-N-(4-Hydroxyphenyl)icosa-5 ,8 , 11,14-tetraen amide] was tested, and the “IL-6 level in serum” value (IL-6 and TNF-α) was “down-regulated”, the “TNF-α level in serum” value (IL-6 and TNF-α) was “down-regulated” and the “expression of HSPB1 relative to untreated cells” value (HSPB1) was 174%. The “expression level of phosphorylated tau protein in hippocampus” value [1] was “lower than that of the mice administrated with DMSO”, the “duration in target quadrant of probe trial in MWM (long-term memory)” value (3×Tg-AD mice; 0.25 mg/kg i.p. daily) was “ameliorate the long-term memory damages” and the “swimming velocity in MWM” value (3×Tg-AD mice; 4 training days, 0.25 mg/kg i.p. daily, among 4 groups) was “no difference”. For the same compound, the “escape latency of 4 training days in MWM (learning ability)” value (3×Tg-AD mice; high blood glucose groups, 0.25 mg/kg i.p. daily vs DMSO) was “better learning ability”, the GSK-3β expression [2] was “down-regulated” and the “expression level of phosphorylated GSK-3β” value [2] was “increased”.
